According to the kinase profiling compilation of Christmann-Franck et al. (2016):

Tests used:
Assay in all cases: radiometric filter-binding kinase assay, Kinase HotSpot
Conditions in all cases: compound 0.5 µM; ATP 10 µM
ABL1 (human) = ABL1 (human) (UniProt P00519)
CAMK2D (human) = CAMK2D (human) (UniProt Q13557)
CDK5 CDK5R1 p25 (human) = CDK5 CDK5R1 p25 (human) (UniProt Q00535+Q15078)
CHUK (human) = CHUK (human) (UniProt O15111)
CSK (human) = CSK (human) (UniProt P41240)
CSNK1E (human) = CSNK1E (human) (UniProt P49674)
DYRK1B (human) = DYRK1B (human) (UniProt Q9Y463)
DYRK4 (human) = DYRK4 (human) (UniProt Q9NR20)
EPHB1 (human) = EPHB1 (human) (UniProt P54762)
IRAK4 (human) = IRAK4 (human) (UniProt Q9NWZ3)
JAK2 JH1 JH2 (human) = JAK2 JH1 JH2 (human) (UniProt O60674)
JAK3 JH1 JH2 (human) = JAK3 JH1 JH2 (human) (UniProt P52333)
MAPK11 (human) = MAPK11 (human) (UniProt Q15759)
MAPK12 (human) = MAPK12 (human) (UniProt P53778)
MAPK8 (human) = MAPK8 (human) (UniProt P45983)
MAPK9 (human) = MAPK9 (human) (UniProt P45984)
MATK (human) = MATK (human) (UniProt P42679)
OXSR1 (human) = OXSR1 (human) (UniProt O95747)
PAK7 (human) = PAK7 (human) (UniProt Q9P286)
PBK (human) = PBK (human) (UniProt Q96KB5)
PKN2 (human) = PKN2 (human) (UniProt Q16513)
PRKCH (human) = PRKCH (human) (UniProt P24723)
PRKCI (human) = PRKCI (human) (UniProt P41743)
PRKD2 (human) = PRKD2 (human) (UniProt Q9BZL6)
PRKX (human) = PRKX (human) (UniProt P51817)
RPS6KA2 KD1 KD2 (human) = RPS6KA2 KD1 KD2 (human) (UniProt Q15349)
RPS6KA3 KD1 KD2 (human) = RPS6KA3 KD1 KD2 (human) (UniProt P51812)
RPS6KA4 KD2 (human) = RPS6KA4 KD2 (human) (UniProt O75676)
SRPK1 (human) = SRPK1 (human) (UniProt Q96SB4)
STK33 (human) = STK33 (human) (UniProt Q9BYT3)
TAOK2 (human) = TAOK2 (human) (UniProt Q9UL54)
ULK1 (human) = ULK1 (human) (UniProt O75385)
CSNK2A2 (human) = CSNK2A2 (human) (UniProt P19784)

Sequence of DYRK1B (human) (Q9Y463 whole entry, looked up): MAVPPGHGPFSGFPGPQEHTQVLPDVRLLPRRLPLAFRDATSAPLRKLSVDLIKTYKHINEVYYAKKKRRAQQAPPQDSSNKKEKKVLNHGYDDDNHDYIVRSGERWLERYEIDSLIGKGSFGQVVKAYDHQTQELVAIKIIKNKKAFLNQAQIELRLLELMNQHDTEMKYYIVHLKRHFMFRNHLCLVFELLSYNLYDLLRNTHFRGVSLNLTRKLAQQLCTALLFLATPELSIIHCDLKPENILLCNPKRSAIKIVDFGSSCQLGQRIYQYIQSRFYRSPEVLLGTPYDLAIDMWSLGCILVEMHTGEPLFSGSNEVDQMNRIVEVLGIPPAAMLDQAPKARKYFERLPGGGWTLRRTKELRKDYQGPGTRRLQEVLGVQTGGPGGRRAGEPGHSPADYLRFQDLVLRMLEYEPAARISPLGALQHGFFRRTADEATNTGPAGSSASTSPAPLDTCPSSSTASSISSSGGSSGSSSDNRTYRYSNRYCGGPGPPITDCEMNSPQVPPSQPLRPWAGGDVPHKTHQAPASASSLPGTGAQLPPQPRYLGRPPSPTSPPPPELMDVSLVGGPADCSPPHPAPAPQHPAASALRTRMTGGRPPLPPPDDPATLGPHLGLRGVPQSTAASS
Sequence of MAPK9 (human) (P45984 whole entry, looked up): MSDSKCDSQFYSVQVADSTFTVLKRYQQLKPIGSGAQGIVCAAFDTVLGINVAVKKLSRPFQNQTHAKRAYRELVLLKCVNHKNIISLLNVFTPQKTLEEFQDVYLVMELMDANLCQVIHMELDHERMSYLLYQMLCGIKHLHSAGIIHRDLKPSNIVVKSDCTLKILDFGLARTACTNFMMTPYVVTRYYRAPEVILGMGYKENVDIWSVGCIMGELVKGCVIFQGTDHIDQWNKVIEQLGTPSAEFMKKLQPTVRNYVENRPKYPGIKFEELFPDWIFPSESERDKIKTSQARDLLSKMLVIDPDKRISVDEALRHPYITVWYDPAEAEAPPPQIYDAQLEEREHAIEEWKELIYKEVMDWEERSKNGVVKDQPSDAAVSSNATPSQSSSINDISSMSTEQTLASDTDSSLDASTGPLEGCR
Sequence of PRKD2 (human) (Q9BZL6 whole entry, looked up): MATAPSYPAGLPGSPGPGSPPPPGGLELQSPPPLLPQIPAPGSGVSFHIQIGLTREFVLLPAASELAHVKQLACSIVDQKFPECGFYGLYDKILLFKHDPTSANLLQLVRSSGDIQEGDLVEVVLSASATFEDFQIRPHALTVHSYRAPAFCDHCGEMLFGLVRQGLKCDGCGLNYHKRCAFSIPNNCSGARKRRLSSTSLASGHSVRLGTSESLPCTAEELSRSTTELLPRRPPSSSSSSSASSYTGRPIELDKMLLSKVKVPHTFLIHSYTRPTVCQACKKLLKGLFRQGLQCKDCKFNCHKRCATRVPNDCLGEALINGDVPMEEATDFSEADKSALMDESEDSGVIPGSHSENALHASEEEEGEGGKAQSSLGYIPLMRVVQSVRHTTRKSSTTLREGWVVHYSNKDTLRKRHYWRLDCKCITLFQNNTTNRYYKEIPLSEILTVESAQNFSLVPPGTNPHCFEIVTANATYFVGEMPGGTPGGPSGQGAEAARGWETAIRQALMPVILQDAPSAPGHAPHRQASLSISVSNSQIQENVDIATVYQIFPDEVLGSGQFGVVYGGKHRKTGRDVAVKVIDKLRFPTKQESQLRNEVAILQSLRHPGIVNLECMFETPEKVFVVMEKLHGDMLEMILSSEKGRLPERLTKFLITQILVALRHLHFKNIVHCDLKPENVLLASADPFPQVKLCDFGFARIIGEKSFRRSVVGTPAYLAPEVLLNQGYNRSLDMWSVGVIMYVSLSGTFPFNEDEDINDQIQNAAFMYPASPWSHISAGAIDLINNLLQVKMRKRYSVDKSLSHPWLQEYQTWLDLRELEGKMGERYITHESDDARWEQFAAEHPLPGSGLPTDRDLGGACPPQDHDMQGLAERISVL
Sequence of RPS6KA2 KD1 KD2 (human) (Q15349 whole entry, looked up): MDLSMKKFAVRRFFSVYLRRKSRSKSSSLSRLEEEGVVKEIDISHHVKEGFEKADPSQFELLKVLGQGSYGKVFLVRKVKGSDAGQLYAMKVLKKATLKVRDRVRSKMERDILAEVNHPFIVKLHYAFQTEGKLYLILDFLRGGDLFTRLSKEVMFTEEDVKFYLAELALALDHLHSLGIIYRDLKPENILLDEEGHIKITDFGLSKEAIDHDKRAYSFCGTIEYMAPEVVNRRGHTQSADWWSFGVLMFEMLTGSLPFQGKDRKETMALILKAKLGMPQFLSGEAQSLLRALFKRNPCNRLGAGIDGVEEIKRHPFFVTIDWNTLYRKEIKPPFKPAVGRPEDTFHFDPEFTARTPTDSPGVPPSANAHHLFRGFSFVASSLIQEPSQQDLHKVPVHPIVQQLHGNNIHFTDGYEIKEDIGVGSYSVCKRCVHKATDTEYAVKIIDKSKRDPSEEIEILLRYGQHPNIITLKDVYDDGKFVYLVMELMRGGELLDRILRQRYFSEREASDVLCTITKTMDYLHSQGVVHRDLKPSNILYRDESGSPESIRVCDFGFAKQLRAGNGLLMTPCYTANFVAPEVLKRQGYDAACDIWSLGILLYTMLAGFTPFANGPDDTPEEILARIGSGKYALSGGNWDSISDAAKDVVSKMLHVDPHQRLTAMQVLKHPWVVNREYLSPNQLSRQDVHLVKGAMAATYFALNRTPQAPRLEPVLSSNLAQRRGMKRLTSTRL
Sequence of OXSR1 (human) (O95747 whole entry, looked up): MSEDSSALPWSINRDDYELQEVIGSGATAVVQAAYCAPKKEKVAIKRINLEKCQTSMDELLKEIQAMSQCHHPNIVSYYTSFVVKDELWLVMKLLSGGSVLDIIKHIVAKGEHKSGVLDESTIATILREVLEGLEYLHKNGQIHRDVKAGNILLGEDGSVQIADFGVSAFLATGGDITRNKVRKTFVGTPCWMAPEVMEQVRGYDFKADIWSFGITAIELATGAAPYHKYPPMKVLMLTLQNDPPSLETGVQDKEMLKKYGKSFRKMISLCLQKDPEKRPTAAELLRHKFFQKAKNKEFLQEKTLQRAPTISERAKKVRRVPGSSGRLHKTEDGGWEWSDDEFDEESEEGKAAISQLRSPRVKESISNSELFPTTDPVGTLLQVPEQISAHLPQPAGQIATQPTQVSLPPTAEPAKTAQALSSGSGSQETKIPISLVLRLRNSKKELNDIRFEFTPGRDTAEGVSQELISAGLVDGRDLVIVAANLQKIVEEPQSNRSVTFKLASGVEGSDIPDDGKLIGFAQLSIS
Sequence of TAOK2 (human) (Q9UL54 whole entry, looked up): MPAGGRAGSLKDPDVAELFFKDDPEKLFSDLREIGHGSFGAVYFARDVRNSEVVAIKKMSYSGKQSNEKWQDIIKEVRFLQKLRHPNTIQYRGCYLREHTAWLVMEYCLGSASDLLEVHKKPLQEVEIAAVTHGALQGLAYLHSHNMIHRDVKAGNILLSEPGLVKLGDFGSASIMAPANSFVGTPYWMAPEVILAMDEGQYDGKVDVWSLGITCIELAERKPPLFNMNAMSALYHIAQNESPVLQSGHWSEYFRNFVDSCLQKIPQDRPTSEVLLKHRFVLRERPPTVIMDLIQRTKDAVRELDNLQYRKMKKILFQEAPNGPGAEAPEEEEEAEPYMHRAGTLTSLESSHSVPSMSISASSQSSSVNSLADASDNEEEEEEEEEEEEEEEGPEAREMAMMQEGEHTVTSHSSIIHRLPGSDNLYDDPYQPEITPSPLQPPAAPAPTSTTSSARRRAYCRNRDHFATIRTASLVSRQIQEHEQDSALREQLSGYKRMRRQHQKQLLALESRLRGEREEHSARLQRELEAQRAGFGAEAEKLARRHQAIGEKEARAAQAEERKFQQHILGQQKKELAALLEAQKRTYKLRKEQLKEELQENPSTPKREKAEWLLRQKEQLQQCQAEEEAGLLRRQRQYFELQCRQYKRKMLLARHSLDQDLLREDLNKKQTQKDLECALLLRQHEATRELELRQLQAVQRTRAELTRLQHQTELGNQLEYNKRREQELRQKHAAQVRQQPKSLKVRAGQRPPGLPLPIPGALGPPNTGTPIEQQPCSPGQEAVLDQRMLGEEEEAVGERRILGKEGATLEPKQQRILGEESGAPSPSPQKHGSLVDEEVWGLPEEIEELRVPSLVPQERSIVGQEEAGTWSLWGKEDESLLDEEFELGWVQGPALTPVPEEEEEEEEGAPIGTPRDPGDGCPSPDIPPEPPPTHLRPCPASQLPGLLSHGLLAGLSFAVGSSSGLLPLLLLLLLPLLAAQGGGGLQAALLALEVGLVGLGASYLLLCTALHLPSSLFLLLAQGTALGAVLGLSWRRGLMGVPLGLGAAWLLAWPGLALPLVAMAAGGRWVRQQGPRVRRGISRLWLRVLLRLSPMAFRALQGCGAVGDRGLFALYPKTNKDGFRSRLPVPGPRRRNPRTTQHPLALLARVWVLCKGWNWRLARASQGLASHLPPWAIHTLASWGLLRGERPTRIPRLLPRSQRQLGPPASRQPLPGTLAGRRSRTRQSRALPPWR
Sequence of PRKX (human) (P51817 whole entry, looked up): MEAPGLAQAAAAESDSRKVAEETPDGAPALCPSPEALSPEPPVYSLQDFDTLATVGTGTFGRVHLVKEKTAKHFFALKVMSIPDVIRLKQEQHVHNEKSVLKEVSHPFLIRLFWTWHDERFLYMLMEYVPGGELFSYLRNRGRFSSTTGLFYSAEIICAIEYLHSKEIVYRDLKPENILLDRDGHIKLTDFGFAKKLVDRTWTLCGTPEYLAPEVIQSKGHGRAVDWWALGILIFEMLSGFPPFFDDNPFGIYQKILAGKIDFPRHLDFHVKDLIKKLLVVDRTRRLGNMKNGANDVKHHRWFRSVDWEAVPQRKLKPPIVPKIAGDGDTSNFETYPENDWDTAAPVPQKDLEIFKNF

Compound	residual activity (ABL1 (human))	residual activity (CAMK2D (human))	residual activity (CDK5 CDK5R1 p25 (human))	residual activity (CSK (human))	residual activity (CSNK1E (human))	residual activity (DYRK1B (human))	residual activity (DYRK4 (human))	residual activity (IRAK4 (human))	residual activity (JAK2 JH1 JH2 (human))	residual activity (JAK3 JH1 JH2 (human))	residual activity (MAPK11 (human))	residual activity (MAPK12 (human))	residual activity (MAPK8 (human))	residual activity (MAPK9 (human))	residual activity (MATK (human))	residual activity (OXSR1 (human))	residual activity (PAK7 (human))	residual activity (PBK (human))	residual activity (PKN2 (human))	residual activity (PRKCH (human))	other results
CC(=O)O/N=C1\C(=C2\C(=O)Nc3cc(Br)ccc32)Nc2ccccc21	43.1%	53.8%	51.4%	75.5%	55.8%	96%	96.7%	94.1%	105%	107%	83.4%	85.2%	88.9%	90.5%	93%	112%	89.1%	76.8%	85.4%	95.4%	residual activity (CHUK (human)): 98.3%; residual activity (EPHB1 (human)): 99.9%; residual activity (PRKCI (human)): 74.3%; residual activity (PRKD2 (human)): 87.8%; residual activity (PRKX (human)): 99.9%; residual activity (RPS6KA2 KD1 KD2 (human)): 51%; residual activity (RPS6KA3 KD1 KD2 (human)): 91.9%; residual activity (RPS6KA4 KD2 (human)): 97.6%; residual activity (SRPK1 (human)): 96.7%; residual activity (STK33 (human)): 70.3%; residual activity (TAOK2 (human)): 84.4%; residual activity (ULK1 (human)): 95.6%
CC(C)c1nn(-c2c(Cl)cccc2Cl)c2nc(Cc3ccc(OCCO)cc3)nc(O)c12	95.6%	85.7%	2.54%	106%	83.6%	99.9%	96.7%	112%	98.3%	103%	81.8%	103%	95.4%	96.5%	91.1%	93.8%	76.4%	101%	97.5%	87.4%	residual activity (CHUK (human)): 98.5%; residual activity (CSNK2A2 (human)): 92.2%; residual activity (EPHB1 (human)): 91.3%; residual activity (PRKCI (human)): 95.2%; residual activity (PRKD2 (human)): 88.4%; residual activity (PRKX (human)): 96.3%; residual activity (RPS6KA2 KD1 KD2 (human)): 80.8%; residual activity (RPS6KA3 KD1 KD2 (human)): 88.4%; residual activity (RPS6KA4 KD2 (human)): 95.3%; residual activity (SRPK1 (human)): 97.4%; residual activity (STK33 (human)): 97.5%; residual activity (TAOK2 (human)): 93.3%; residual activity (ULK1 (human)): 125%
O=C1NC(=O)C(c2cn(CCCO)c3ncccc23)=C1c1cnccn1	98.9%	101%	103%	86.9%	93.9%	93.2%	98.4%	129%	97.8%	134%	105%	86.8%	99.6%	100%	95.5%	101%	88.2%	94.9%	83.3%	81.6%	residual activity (PRKCI (human)): 87%; residual activity (PRKD2 (human)): 118%; residual activity (PRKX (human)): 106%; residual activity (RPS6KA2 KD1 KD2 (human)): 73.2%; residual activity (RPS6KA3 KD1 KD2 (human)): 91.3%; residual activity (RPS6KA4 KD2 (human)): 101%; residual activity (SRPK1 (human)): 98%; residual activity (STK33 (human)): 82.8%; residual activity (TAOK2 (human)): 88.1%; residual activity (ULK1 (human)): 102%
O=C(O)/C=C/c1cc(Br)c(Br)c(Br)c1Br	81.5%	77.7%	84.1%	103%	83.6%	79.1%	96.4%	86.6%	101%	71.8%	92.7%	103%	86.8%	96.4%	87.2%	93.5%	90.6%	96.2%	95.6%	83.7%	residual activity (CHUK (human)): 89.5%; residual activity (CSNK2A2 (human)): 17%; residual activity (EPHB1 (human)): 95.2%; residual activity (PRKCI (human)): 97.3%; residual activity (PRKD2 (human)): 71.6%; residual activity (PRKX (human)): 96%; residual activity (RPS6KA2 KD1 KD2 (human)): 75.8%; residual activity (RPS6KA3 KD1 KD2 (human)): 41.2%; residual activity (RPS6KA4 KD2 (human)): 103%; residual activity (SRPK1 (human)): 79.3%; residual activity (STK33 (human)): 67.9%; residual activity (TAOK2 (human)): 88.9%; residual activity (ULK1 (human)): 108%
